Measurements published in patent publication US9956208B2, “Compounds for the treatment of cancer and inflammatory diseases” (C2 Pharmaceuticals, LLC, priority 2013, dated 2018).

Each compound was assayed against human BTK (Homo sapiens (Human), UniProt Q06187) (assay: BTK activity, Invitrogen SelectScreen Biochemical Kinase Profiling Service, Z'-LYTE Screening Protocol). Details: Z'-LYTE assay, ATP concentration at Km.
Protocol: BTK activity was determined using Invitrogen's SelectScreen® Biochemical Kinase Profiling Service using the Z′-LYTE Screening Protocol and Assay Conditions (ATP concentration at Km).

Sequence of human BTK (Q06187 whole entry): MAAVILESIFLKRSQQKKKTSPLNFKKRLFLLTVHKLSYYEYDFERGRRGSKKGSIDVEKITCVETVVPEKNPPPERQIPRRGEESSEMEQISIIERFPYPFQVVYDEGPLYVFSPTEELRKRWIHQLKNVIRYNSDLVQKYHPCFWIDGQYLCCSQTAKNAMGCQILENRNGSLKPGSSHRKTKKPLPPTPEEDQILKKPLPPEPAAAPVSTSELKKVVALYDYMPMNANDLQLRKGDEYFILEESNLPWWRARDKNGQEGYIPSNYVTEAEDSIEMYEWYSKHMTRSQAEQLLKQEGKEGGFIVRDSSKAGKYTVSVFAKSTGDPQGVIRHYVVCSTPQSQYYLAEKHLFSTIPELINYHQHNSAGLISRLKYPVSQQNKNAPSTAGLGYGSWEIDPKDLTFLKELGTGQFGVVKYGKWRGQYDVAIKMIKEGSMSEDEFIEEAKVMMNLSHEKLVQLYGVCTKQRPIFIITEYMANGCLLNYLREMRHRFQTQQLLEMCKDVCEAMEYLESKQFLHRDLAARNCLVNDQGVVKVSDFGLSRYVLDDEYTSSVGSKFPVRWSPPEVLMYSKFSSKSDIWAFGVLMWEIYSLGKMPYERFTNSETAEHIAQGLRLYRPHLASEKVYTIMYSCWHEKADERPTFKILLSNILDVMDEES

| IC50 | Structure (SMILES) |
| --- | --- |
| < 10 nM | C=CC(=O)Nc1cccc2c1OCc1[nH]c(=O)c3c(N)n(-c4cc(O)ccc4C)nc3c1-2 [Example 1, N-[14-amino-15-(5-hydroxy-2-methylphenyl)-12-oxo-8-oxa-11,15,16-triazatetracyclo[8.7.0.0^2,7.0^13,17]heptadeca-1(10),2(7),3,5,13,16-hexaen-6-yl]prop-2-enamide] |
| < 10 nM | Cc1ccc(O)cc1-n1nc2c3c([nH]c(=O)c2c1N)COc1c(NC(=O)/C=C/CN(C)C)cccc1-3 [Example 2, (2E)-N-[14-amino-15-(5-hydroxy-2-methylphenyl)-12-oxo-8-oxa-11,15,16-triazatetracyclo[8.7.0.0^2,7.0^13,17]heptadeca-1(10),2(7),3,5,13,16-hexaen-6-yl]-4-(dimethylamino)but-2-enamide] |
| < 10 nM | CN(C)C/C=C/C(=O)Nc1cccc2c1OCc1[nH]c(=O)c3c(N)n(-c4ccc(Oc5ccccc5)cc4)nc3c1-2 [Example 3, (2E)-N-[14-amino-12-oxo-15-(4-phenoxyphenyl)-8-oxa-11,15,16-triazatetracyclo[8.7.0.0^2,7.0^13,17]heptadeca-1(10),2(7),3,5,13,16-hexaen-6-yl]-4-(dimethylamino)but-2-enamide] |
| 10 to 100 nM | C=CC(=O)Nc1cccc2c1OCc1[nH]c(=O)c3c(N)n(-c4ccccc4F)nc3c1-2 [Example 4, N-[14-amino-15-(2-fluorophenyl)-12-oxo-8-oxa-11,15,16-triazatetracyclo[8.7.0.0^2,7.0^13,17]heptadeca-1(10),2(7),3,5,13,16-hexaen-6-yl]prop-2-enamide] |
